The values that follow come from PubChem BioAssay (NCI).

Test systems include HS 578T breast; HCC-2998 colon; SK-MEL-5 melanoma; OVCAR-8 ovarian; SW-620 colon; MCF7 breast; NCI-H23 lung; EKVX NSCLC; 786-0 renal; MOLT-4 leukemia.
Common to all, as to experiment: DTP human tumour cell line panel, 48 h

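Protocol summary: plate cells (96-well), add compound at 5 concentrations, incubate 48 h, interpolate endpoints linearly. GI50: concentration for 50% inhibition of growth. TGI: concentration producing complete growth inhibition.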

As a reminder, the TGI is the concentration at which net growth stops. In the case of `Cc1ccc(Cc2n[nH]c(=O)n2N2C(=O)c3ccccc3C2=O)cc1`, the TGI with HS 578T breast, with HCC-2998 colon, in the test on SK-MEL-5 melanoma, with OVCAR-8 ovarian, in the test with SW-620 colon and in the test on MCF7 breast was greater than 100 µM each time. The TGI in the test with NCI-H23 lung, in the test on EKVX NSCLC, in the test with 786-0 renal and in the test on MOLT-4 leukemia was greater than 100 µM each time.
With `CC1(C)OC2[C@@H](CO[C@@]3([C@H]4OC(C)(C)O[C@@H]4CO)OC(C)(C)O[C@@H]23)O1` (stereo not given in full), the TGI in the test with HS 578T breast, in the test with HCC-2998 colon, with SK-MEL-5 melanoma, with OVCAR-8 ovarian, with SW-620 colon and with MCF7 breast was greater than 100 µM throughout. Moreover, the TGI with NCI-H23 lung, in the test on EKVX NSCLC, with 786-0 renal and with MOLT-4 leukemia was greater than 100 µM in each case.
For `COC(=O)CN(CC1O[C@@H]2OC(C)(C)O[C@@H]2C1NC(C)=O)C(=O)OCc1ccccc1` (stereo not given in full), the TGI in the test on HS 578T breast, in the test on HCC-2998 colon, with SK-MEL-5 melanoma, in the test on OVCAR-8 ovarian, in the test on SW-620 colon and in the test with MCF7 breast was greater than 100 µM throughout. Moreover, the TGI in the test with EKVX NSCLC, in the test with 786-0 renal and in the test on MOLT-4 leukemia was greater than 100 µM throughout.
In general, GI50 refers to the concentration giving 50% growth inhibition. For `COc1cc(/C=C/c2ccc(S(N)(=O)=O)cc2)cc(OC)c1`, the GI50 with HS 578T breast was 20.1 µM; in the test on OVCAR-8 ovarian it was 37.9 µM; with NCI-H23 lung it was 22.5 µM; with MOLT-4 leukemia it was 18.6 µM. Moreover, the TGI is 48.5 µM in the test on HS 578T breast; 38.1 µM in the test with HCC-2998 colon; 29.8 µM in the test with SK-MEL-5 melanoma; greater than 100 µM with OVCAR-8 ovarian; 75.1 µM with MCF7 breast; 49.8 µM in the test with NCI-H23 lung. For the same compound, the results for the TGI with EKVX NSCLC, in the test on 786-0 renal and in the test with MOLT-4 leukemia were 86 µM, 50.5 µM and 43.9 µM, respectively.
Take `CC1(C)OC2OC(C(=O)c3ccccc3)C3OC(C)(C)OC3C2O1` (stereo not given): the total growth inhibition concentration (TGI) in the test on HS 578T breast, in the test with HCC-2998 colon, with SK-MEL-5 melanoma, with OVCAR-8 ovarian, with SW-620 colon and in the test on MCF7 breast was greater than 100 µM each time. Further, the total growth inhibition concentration (TGI) in the test with NCI-H23 lung, in the test with EKVX NSCLC, with 786-0 renal and with MOLT-4 leukemia was greater than 100 µM in each case.
In the case of `C=CC(=C)CCC(Br)C(C)(C)Cl` (stereo not given), the TGI in the test on HS 578T breast, with HCC-2998 colon, in the test with SK-MEL-5 melanoma, in the test on OVCAR-8 ovarian, in the test on SW-620 colon and in the test on MCF7 breast was greater than 100 µM in each case. Further, the total growth inhibition concentration (TGI) in the test on NCI-H23 lung, in the test on EKVX NSCLC, with 786-0 renal and with MOLT-4 leukemia was greater than 100 µM in each case.
In the case of `COC(=O)C1Cc2c([nH]c3ccccc23)-c2[nH]c3ccccc3c2CC(NC(C)=O)C(=O)N2CCCC2C(=O)N1` (stereo not given), the TGI in the test on HS 578T breast, in the test with HCC-2998 colon, in the test with SK-MEL-5 melanoma, in the test on OVCAR-8 ovarian, with SW-620 colon and with MCF7 breast was greater than 100 µM throughout. Besides, the TGI in the test with NCI-H23 lung, with EKVX NSCLC, with 786-0 renal and in the test with MOLT-4 leukemia was greater than 100 µM throughout.
Turning to `COc1cccc(/C=N/NC(=O)CN(C)C)c1O`, the TGI in the test with HS 578T breast, with HCC-2998 colon, in the test with SK-MEL-5 melanoma, with OVCAR-8 ovarian, in the test on SW-620 colon and in the test with MCF7 breast was greater than 100 µM each time. Further, the TGI in the test on NCI-H23 lung, with EKVX NSCLC, in the test on 786-0 renal and with MOLT-4 leukemia was greater than 100 µM throughout.
`CNC(=O)c1cc(Oc2cccc3nc(NC(=O)Nc4ccc(F)cc4F)ccc23)ccn1`: the GI50 in the test on HS 578T breast is 1.4 µM; in the test on HCC-2998 colon, greater than 50 µM; in the test with SK-MEL-5 melanoma, 1.02 µM; with OVCAR-8 ovarian it was 1.65 µM; in the test with MCF7 breast, 1.66 µM; in the test on NCI-H23 lung it was 2.4 µM. For the same compound, the TGI was 3.99 µM in the test with HS 578T breast; greater than 50 µM in the test on HCC-2998 colon; greater than 50 µM with SK-MEL-5 melanoma; greater than 50 µM in the test with OVCAR-8 ovarian; greater than 50 µM with MCF7 breast; greater than 50 µM in the test with NCI-H23 lung.
With `CC(=O)N1CCN(CCCCN2c3ccccc3Sc3cc(N=[N+]=[N-])ccc32)CC1`, the total growth inhibition concentration (TGI) came to 32.7 µM with HS 578T breast; 28.5 µM with HCC-2998 colon; 32 µM with OVCAR-8 ovarian; 29.3 µM in the test with SW-620 colon; 28.9 µM with MCF7 breast; 30.1 µM with NCI-H23 lung. The TGI came to 32.7 µM in the test with EKVX NSCLC, 29.5 µM in the test with 786-0 renal and 25.3 µM in the test on MOLT-4 leukemia.
As to `c1ccc(Sc2nc(Sc3ccccc3)nc(Sc3ccccc3)n2)cc1`, the TGI was 75.4 µM in the test on HS 578T breast; 37.8 µM with HCC-2998 colon; greater than 100 µM in the test with SK-MEL-5 melanoma; greater than 100 µM with MCF7 breast; greater than 100 µM in the test with NCI-H23 lung; greater than 100 µM in the test on EKVX NSCLC. For the same compound, the TGI in the test with MOLT-4 leukemia was greater than 100 µM.
As for `Cc1ccc(S(=O)(=O)NCCCSCCO)cc1`, the TGI with HS 578T breast, in the test on HCC-2998 colon, in the test on SK-MEL-5 melanoma, in the test on OVCAR-8 ovarian, with SW-620 colon and in the test with MCF7 breast was greater than 100 µM in each case. Also, the total growth inhibition concentration (TGI) with NCI-H23 lung and in the test on MOLT-4 leukemia was greater than 100 µM throughout.
In the case of `CN1C(=O)[C@@H]2[C@@H]3c4ccccc4N[C@@H]3c3[nH]c4ccccc4c3[C@@H]2C1=O`, the TGI in the test with HS 578T breast is 76.5 µM; in the test with HCC-2998 colon it was 40.3 µM; in the test with SK-MEL-5 melanoma it was 25 µM; in the test on OVCAR-8 ovarian, 63.1 µM; with SW-620 colon, greater than 100 µM; in the test on MCF7 breast it was greater than 100 µM. Moreover, the TGI in the test on NCI-H23 lung is 28.6 µM; in the test on EKVX NSCLC, greater than 100 µM; in the test with MOLT-4 leukemia it was 55.6 µM.
Regarding `CCOC(=O)c1cc([N+](=O)[O-])cc([N+](=O)[O-])c1Sc1ncnc2nc[nH]c12`, the TGI in the test with HS 578T breast was 71.2 µM; with HCC-2998 colon it was 30.2 µM; with SK-MEL-5 melanoma, 27.7 µM; in the test with OVCAR-8 ovarian it was 4.48 µM; with SW-620 colon, greater than 100 µM; in the test with MCF7 breast, 4.08 µM. Further, the figures for the TGI with EKVX NSCLC, in the test with 786-0 renal and in the test with MOLT-4 leukemia were 13.1 µM, 2.07 µM and greater than 26.8 µM, respectively.
Take `O=c1cc(NNc2cccc(F)c2)[nH]c(=S)[nH]1`: the TGI in the test on HS 578T breast, in the test on HCC-2998 colon, in the test with SK-MEL-5 melanoma, with OVCAR-8 ovarian, in the test on SW-620 colon and in the test with MCF7 breast was greater than 100 µM in each case. Moreover, the TGI with EKVX NSCLC and with 786-0 renal was greater than 100 µM each time.
For `Cc1cc2nc(CC(C(F)(F)F)C(F)(F)F)oc2cc1C`, the TGI in the test on HS 578T breast was 16.6 µM; in the test on HCC-2998 colon, 11.8 µM; with SK-MEL-5 melanoma it was 12.2 µM; in the test on OVCAR-8 ovarian it was 3.23 µM; in the test with SW-620 colon it was 2.83 µM; with MCF7 breast, 24.1 µM. Besides, the TGI stood at 8.15 µM in the test with NCI-H23 lung and 7.6 µM in the test on EKVX NSCLC.
Regarding `O=C1C=CC(=O)[C@H]2C3C=CC(C4C3C3(Cl)C(Cl)=C(Cl)[C@]4(Cl)C3(Cl)Cl)[C@@H]12` (stereo not given in full), the TGI with HS 578T breast worked out at 31.2 µM; with SK-MEL-5 melanoma, 15.3 µM; with OVCAR-8 ovarian, 20.7 µM; in the test with SW-620 colon, 23.2 µM; in the test with MCF7 breast, 13.4 µM; in the test on NCI-H23 lung it was 25.7 µM. For the same compound, the TGI in the test with EKVX NSCLC stood at 15 µM; in the test with 786-0 renal, 18.4 µM; with MOLT-4 leukemia, 36 µM.
`CN1CCN(Cn2nc(-c3cc(F)c(Cl)cc3Cl)oc2=S)CC1`: the GI50 in the test with HS 578T breast is 28.5 µM; in the test on HCC-2998 colon, 55.9 µM; in the test on SK-MEL-5 melanoma, 17.4 µM; in the test with SW-620 colon, 20 µM; in the test with MCF7 breast, 30.2 µM; in the test with NCI-H23 lung, 76.5 µM. For the same compound, the GI50 is greater than 100 µM in the test on EKVX NSCLC and 30.5 µM with MOLT-4 leukemia. Moreover, the TGI in the test with HS 578T breast was 86.8 µM; in the test on HCC-2998 colon, greater than 100 µM; with SK-MEL-5 melanoma, 33.7 µM; in the test with SW-620 colon, 39.4 µM; in the test with MCF7 breast, greater than 100 µM; in the test on NCI-H23 lung, greater than 100 µM. In addition, the TGI was greater than 100 µM in the test with EKVX NSCLC and 70.9 µM in the test on MOLT-4 leukemia.
For the compound `O=C1CCc2ccccc2O1`, the TGI in the test with HS 578T breast, with HCC-2998 colon, with OVCAR-8 ovarian, in the test with SW-620 colon, in the test on MCF7 breast and in the test on NCI-H23 lung was greater than 100 µM throughout. Besides, the concentration for total growth inhibition (TGI) in the test on EKVX NSCLC, in the test on 786-0 renal and in the test with MOLT-4 leukemia was greater than 100 µM each time.
In the case of `Cc1csc2c(=O)n(COCc3ccccc3)c(=O)[nH]c12`, the total growth inhibition concentration (TGI) with HS 578T breast, with SK-MEL-5 melanoma, in the test with OVCAR-8 ovarian, in the test with SW-620 colon, in the test with MCF7 breast and in the test on NCI-H23 lung was greater than 100 µM throughout. In addition, the TGI in the test with EKVX NSCLC, in the test on 786-0 renal and with MOLT-4 leukemia was greater than 100 µM in each case.
